Measured values from patent publication US20200268720A1, “METHODS OF USE OF A CLASS IIA HDAC INHIBITOR” (GlaxoSmithKline LLC, priority 2016, published 2020).

System: MMTV-PyMT tumor transplants
Experiment: Orthotopic transplant of MMTV-PyMT tumor pieces into wild-type FVBN or athymic nude Foxn1nu mice
Type: in vivo, mouse
Settings: treated for 20 days
Method: Two transplant experiments were performed where tumors were extracted from MMTV-PyMT mice and 50-100 mm^3 pieces were inserted into the 4th mammary fat pad of either wild-type FVBN mice or athymic nude Foxn1nu mice. Five days after implant mice were randomly placed into treatment groups and treated as indicated.

CC(=O)O[C@H]1C(=O)[C@@]2(C)[C@H]([C@H](OC(=O)c3ccccc3)[C@]3(O)C[C@H](OC(=O)[C@H](O)[C@@H](NC(=O)c4ccccc4)c4ccccc4)C(C)=C1C3(C)C)[C@]1(OC(C)=O)CO[C@@H]1C[C@@H]2O [paclitaxel, 5β,20-epoxy-1,2α,4,7β,10β,13α-hexa-hydroxytax-11-en-9-one 4,10-diacetate 2-benzoate 13-ester with (2R,3S)—N-benzoyl-3-phenylisoserine, reference compound]
transplant growth in T cell deficient athymic nude (Foxn1nu) recipient mice: efficacious
